Source: patent US20240308988A1, “Method For Controlling Diamide Resistant Pests and Compounds Therefor” (priority 2021, published 2024)

How the values were obtained:
[1] = tested on: Resistant Plutella xylostella R1 (multi-resistant larvae having the G4946E resistance mutation); assay: Resistant Plutella xylostella R1 (Diamond back moth) larvicide L3, feeding/contact, sprayed Chinese cabbage leaves; assay type: in vivo; conditions: for pest or weed control at 50 µg/mL: Plutella xylostella, 96 h, read-out: control of the resistant strain of Plutella xylostella R1
Protocol: Resistant Plutella xylostella R1 (Diamond back moth) larvicide L3, feeding/contact Chinese cabbage plants were sprayed with diluted test solutions in an application chamber. Cut off leaves were placed into petri dishes with wetted filter paper and infested 1 day after application with 10 L3 multi-resistant Plutella xylostella larvae having the G4946E resistance mutation.
Samples were assessed 4 days after infestation for mortality and growth regulation.
Chlorantraniliprole was used as standard and a resistance factor of 146 was obtained for this strain.
Plutella xylostella resistant strain R1 originally collected from Taiwan in 2012 that carries the RyR mutation G4946E conferring resistance to diamides. The strain is reared on cabbage plants (Brassica aleracea) and selected approximately every two weeks with chlorantraniliprole.

[2] = tested on: Resistant Plutella xylostella R4 (carries the RyR mutation G4946E); assay: Resistant Plutella xylostella R4 (Diamond back moth) larvicide L1, feeding/contact, artificial diet in 24-well plates; assay type: in vivo; conditions: for pest or weed control at 50 µg/mL: Plutella xylostella, 192 h, read-out: control of the resistant strain of Plutella xylostella R4
Protocol: Resistant Plutella xylostella R4 (Diamond back moth) larvicide L1, feeding/contact 24-well microtiter plates with artificial diet were treated with aqueous test solutions prepared from 10′000 ppm DMSO stock solutions by pipetting. After drying, around 30 Plutella eggs were pipetted through a plastic stencil onto a gel blotting paper and the plate was closed with it. The samples were assessed for mortality in comparison to untreated samples 8 days after infestation.
Chlorantraniliprole was used as standard and a resistance factor of 242 was obtained for this strain
Plutella xylostella resistant strain R4 originated in the lab in 2021 from crossing the R1 strain with a lab-reared susceptible P. xylostella strain (SUS). R4 can be reared and tested on artificial diet and also carries the RyR mutation G4946E conferring resistance to diamides. The strain is selected approximately every two weeks with chlorantraniliprole. The following compounds, according to the present invention, gave at least 80% control of the resistant strain of Plutella xylostella R4 at 50 ppm or below: P11, P18, P26, P31, P33, P34, P36, P38, P42, P43, P46, P49, P50, P52, P56, P58, P60, P61, P63, P64, P65, P66, P67, P73, P76, P84, P97, P99, P102, P105.

[3] = tested on: Plutella xylostella (Diamond back moth) ryanodine receptor, containing the G4946E resistance mutation; assay: In vitro calcium fluorescence assay (Fluo-8 NW, FDSS) in human embryonic kidney cells expressing the ryanodine receptor; assay type: cell-based; conditions: table, EC50 (compound)/EC50 (cyantraniliprole), G4946E RyR in HEK cells
Protocol: Human embryonic kidney cells expressing the Plutella xylostella (Diamond back moth) ryanodine receptor, containing the G4946E resistance mutation, are loaded with Fluo-8 No Wash (NW) calcium-sensitive dye which responds by fluorescence to a change in intracellular calcium (e.g. stimulated by activation of ryanodine receptor). Test compounds are added in 10 rates to a 384-well plate containing dye-loaded cells and the fluorescent signal is measured using the Hamamatsu FDSS (Functional Drug Screening system). Dose-response curves are plotted to estimate the EC50. EC50 are normalized against an in-assay reference standard (cyantraniliprole) to address inter-assay variability. The ratio for a given compound is then obtained by the following formula:
REC50=EC50 (compound)/EC50 (cyantraniliprole).

Row | SMILES | melting point | REC50 (Compound of the invention) [3] | further results
1 | NC(=O)c1cc(Br)cc(Cl)c1NC(=O)c1cc(Cn2cc(C(F)(F)F)nn2)nn1-c1ncccc1Cl | 135 to 140 °C |  | 
2 | NC(=O)c1cc(Cl)cc(Br)c1NC(=O)c1cc(Cn2cc(C(F)(F)F)nn2)nn1-c1ncccc1Cl | > 250 °C |  | 
3 | Cc1cc(I)cc(C(N)=O)c1NC(=O)c1cc(C(F)F)nn1-c1ncccc1Cl | 155 to 160 °C |  | 
4 | CNC(=O)c1cc(Cl)cc(C)c1NC(=O)c1cc(Br)nn1-c1ncccc1Cl [Chlorantraniliprole, chlorantraniliprole, reference compound] |  |  | resistance factor ([1]; strain R1, chlorantraniliprole used as standard): 146; resistance factor ([2]; strain R4, chlorantraniliprole used as standard): 242; REC50 (Comparative compound) ([3]; secondary amide analogue): 0.35
5 | Cc1cc(Cl)cc(C(N)=O)c1NC(=O)c1cc(COCc2ccc(Cl)cc2)nn1-c1ncccc1Cl [Compound P5, N-(2-carbamoyl-4-chloro-6-methyl-phenyl)-5-[(4-chlorophenyl)methoxymethyl]-2-(3-chloro-2-pyridyl)pyrazole-3-carboxamide] | 174 to 176 °C | 0.31 | 
6 | Cc1cc(Br)cc(C(N)=O)c1NC(=O)c1cc(C(F)(F)F)nn1-c1ncccc1Cl [Compound P26, N-(4-bromo-2-carbamoyl-6-methyl-phenyl)-2-(3-chloro-2-pyridyl)-5-(trifluoromethyl)pyrazole-3-carboxamide] |  | 0.19 | pest or weed control at 50 µg/mL [1]: ≥ 80%; pest or weed control at 50 µg/mL [2]: ≥ 80%
7 | Cc1cc(C#N)cc(C(N)=O)c1NC(=O)c1cc(C(F)(F)F)nn1-c1ncccc1Cl [Compound P31, N-(2-carbamoyl-4-cyano-6-methyl-phenyl)-2-(3-chloro-2-pyridyl)-5-(trifluoromethyl)pyrazole-3-carboxamide] |  | 0.28 | pest or weed control at 50 µg/mL [1]: ≥ 80%; pest or weed control at 50 µg/mL [2]: ≥ 80%
8 | NC(=O)c1cc(Cl)cc(Cl)c1NC(=O)c1cc(Br)nn1-c1ncc(Cl)cc1Cl [Compound P33, 5-bromo-N-(2-carbamoyl-4,6-dichloro-phenyl)-2-(3,5-dichloro-2-pyridyl) pyrazole-3-carboxamide] |  | 0.31 | pest or weed control at 50 µg/mL [1]: ≥ 80%; pest or weed control at 50 µg/mL [2]: ≥ 80%
9 | NC(=O)c1cc(Cl)cc(Br)c1NC(=O)c1cc(Br)nn1-c1ncccc1Cl [Compound P34, 5-bromo-N-(2-bromo-6-carbamoyl-4-chloro-phenyl)-2-(3-chloro-2-pyridyl) pyrazole-3-carboxamide] |  | 0.18 | pest or weed control at 50 µg/mL [1]: ≥ 80%; pest or weed control at 50 µg/mL [2]: ≥ 80%
10 | COc1cc(C(=O)Nc2c(C)cc(Br)cc2C(N)=O)n(-c2ncccc2Cl)n1 [Compound P45, N-(4-bromo-2-carbamoyl-6-methyl-phenyl)-2-(3-chloro-2-pyridyl)-5-methoxy-pyrazole-3-carboxamide] | 210 to 215 °C | 0.24 | 
11 | COc1cc(C(=O)Nc2c(Cl)cc(Br)cc2C(N)=O)n(-c2ncccc2Cl)n1 [Compound P47, N-(4-bromo-2-carbamoyl-6-chloro-phenyl)-2-(3-chloro-2-pyridyl)-5-methoxy-pyrazole-3-carboxamide] | 160 to 165 °C | 0.61 | 
12 | Cc1cc(I)cc(C(N)=O)c1NC(=O)c1cc(Br)nn1-c1ncccc1Cl [Compound P63, 5-bromo-N-(2-carbamoyl-4-iodo-6-methyl-phenyl)-2-(3-chloro-2-pyridyl) pyrazole-3-carboxamide] |  | 0.19 | pest or weed control at 50 µg/mL [1]: ≥ 80%; pest or weed control at 50 µg/mL [2]: ≥ 80%
13 | Cc1cc(C#N)cc(C(N)=O)c1NC(=O)c1cc(Cn2nnc(-c3ccc(C(F)(F)F)cc3)n2)nn1-c1ncccc1Cl [Compound P67, N-(2-carbamoyl-4-cyano-6-methyl-phenyl)-2-(3-chloro-2-pyridyl)-5-[[5-[4-(trifluoromethyl)phenyl]tetrazol-2-yl]methyl]pyrazole-3-carboxamide] |  | 0.63 | pest or weed control at 50 µg/mL [1]: ≥ 80%; pest or weed control at 50 µg/mL [2]: ≥ 80%
14 | Cc1cc(Cl)cc(C(N)=O)c1NC(=O)c1cc(C2CC2)nn1-c1ncccc1Cl [Compound P76, N-(2-carbamoyl-4-chloro-6-methyl-phenyl)-2-(3-chloro-2-pyridyl)-5-cyclopropyl-pyrazole-3-carboxamide] |  | 0.42 | pest or weed control at 50 µg/mL [1]: ≥ 80%; pest or weed control at 50 µg/mL [2]: ≥ 80%

The next lines start with results.

Row | melting point | SMILES | REC50 (Compound of the invention) [3] | further results
15 | 225 to 230 °C | Cc1cc(Cl)cc(C(N)=O)c1NC(=O)c1cc(C2(F)CC2)nn1-c1ncccc1Cl |  | 
16 | 125 to 130 °C | Cc1cc(Cl)cc(C(N)=O)c1NC(=O)c1cc(C[S+](C)[O-])nn1-c1ncccc1Cl (centres unmarked) |  | 
17 | 187 to 198 °C | Cc1cc(Cl)cc(C(N)=O)c1NC(=O)c1cc(Br)nn1-c1ncccn1 |  | 
18 | 140 to 145 °C | Cc1cc(Cl)cc(C(N)=O)c1NC(=O)c1cc(CS(C)(=O)=O)nn1-c1ncccc1Cl |  | 
19 | 225 to 230 °C | COCc1cc(C(=O)Nc2c(C)cc(Cl)cc2C(N)=O)n(-c2ncccc2Cl)n1 |  | 
20 | 109 to 112 °C | Cc1cc(C#N)cc(C(N)=O)c1NC(=O)c1cc(COCc2ccc(Cl)cc2)nn1-c1ncccc1Cl [Compound P12, N-(2-carbamoyl-4-cyano-6-methyl-phenyl)-5-[(4-chlorophenyl)methoxymethyl]-2-(3-chloro-2-pyridyl)pyrazole-3-carboxamide] |  | 
21 | 190 to 195 °C | Cc1cc(Br)cc(C(N)=O)c1NC(=O)c1cc(Cn2cc(C(F)(F)F)nn2)nn1-c1ncccc1Cl [Compound P35, N-(4-bromo-2-carbamoyl-6-methyl-phenyl)-2-(3-chloro-2-pyridyl)-5-[[4-(trifluoromethyl)triazol-1-yl]methyl] pyrazole-3-carboxamide] |  | 
22 | 185 to 190 °C | NC(=O)c1cc(Br)cc(Cl)c1NC(=O)c1cc(Cn2ncc(C(F)(F)F)n2)nn1-c1ncccc1Cl [Compound P37, N-(4-bromo-2-carbamoyl-6-chloro-phenyl)-2-(3-chloro-2-pyridyl)-5-[[4-(trifluoromethyl)triazol-2-yl]methyl]pyrazole-3-carboxamide] |  | 
23 | > 250 °C | Cc1cc(Br)cc(C(N)=O)c1NC(=O)c1cc(I)nn1-c1ncccc1Cl [Compound P39, N-(4-bromo-2-carbamoyl-6-methyl-phenyl)-2-(3-chloro-2-pyridyl)-5-iodo-pyrazole-3-carboxamide] |  | 
24 | 110 to 115 °C | NC(=O)c1cc(Br)cc(F)c1NC(=O)c1cc(Cn2nnc(C(F)(F)F)n2)nn1-c1ncccc1Cl [Compound P41, N-(4-bromo-2-carbamoyl-6-fluoro-phenyl)-2-(3-chloro-2-pyridyl)-5-[[5-(trifluoromethyl)tetrazol-2-yl]methyl]pyrazole-3-carboxamide] |  | 
25 | 205 to 210 °C | COc1cc(C(=O)Nc2c(Br)cc(Cl)cc2C(N)=O)n(-c2ncccc2Cl)n1 [Compound P55, N-(2-bromo-6-carbamoyl-4-chloro-phenyl)-2-(3-chloro-2-pyridyl)-5-methoxy-pyrazole-3-carboxamide] |  | 
26 | 180 to 185 °C | Cc1cc(Cl)cc(C(N)=O)c1NC(=O)c1cc(CC#N)nn1-c1ncccc1Cl [Compound P70, N-(2-carbamoyl-4-chloro-6-methyl-phenyl)-2-(3-chloro-2-pyridyl)-5-(cyanomethyl)pyrazole-3-carboxamide] |  | 
27 | 225 to 230 °C | Cc1cc(Cl)cc(C(N)=O)c1NC(=O)c1cc(C2(C#N)CC2)nn1-c1ncccc1Cl [Compound P72, N-(2-carbamoyl-4-chloro-6-methyl-phenyl)-2-(3-chloro-2-pyridyl)-5-(1-cyanocyclopropyl)pyrazole-3-carboxamide] |  | 
28 | 175 to 180 °C | CSCc1cc(C(=O)Nc2c(C)cc(Cl)cc2C(N)=O)n(-c2ncccc2Cl)n1 [Compound P79, N-(2-carbamoyl-4-chloro-6-methyl-phenyl)-2-(3-chloro-2-pyridyl)-5-(methylsulfanylmethyl)pyrazole-3-carboxamide] |  | 
